US20250163104A1, “MACROCYCLIC IMMUNOMODULATORS” (priority 2021, published 2025)
Where a SMILES comes first, the peptide text is derived from it. Bridges are numbered along the chain shown (N, C = ends). [ ]: non-standard residue; d: D form. The star is where a group is joined. Bip(3'-COOH) = N[C@@H](Cc1ccc(-c2cccc(C(=O)O)c2)cc1)C(=O)O; Bip(4'-COOH) = N[C@@H](Cc1ccc(-c2ccc(C(=O)O)cc2)cc1)C(=O)O; Phe(4-COOH) = N[C@@H](Cc1ccc(C(=O)O)cc1)C(=O)O; Bip = N[C@@H](Cc1ccc(-c2ccccc2)cc1)C(=O)O; 2Pal = N[C@@H](Cc1ccccn1)C(=O)O; 3Pal = N[C@@H](Cc1cccnc1)C(=O)O; Cha = N[C@@H](CC1CCCCC1)C(=O)O; Carboxymethyl = O=C(O)C*; Orn = NCCC[C@H](N)C(=O)O; Dab = NCC[C@H](N)C(=O)O; Dap = NC[C@H](N)C(=O)O

target: T1, human PD-1 / PD-L1-Ig binding on Jurkat cell line over-expressing human PD-1 (Jurkat-PD-1) (Homo sapiens, UniProt Q15116); assay: Jurkat-PD-1 Cell Binding High-Content Screening Assay (CBA); assay type: cell-based; settings: Jurkat-PD-1 cells, PE-labeled PD-L1-Ig 20 nM final; read-out: Jurkat HPD1_PDL1 IC50
T1 construct: expressed in transfected cells; host or cells: Jurkat
Procedure, shortened: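 Cell-bound PE-labeled PD-L1-Ig (20 nM final, 1 h) measured by high-content imaging after fixation and Hoechst 33342 counterstain. Compound was applied first for 2 h at 37° C. to Jurkat cells over-expressing human PD-1 in DMEM with 10% FCS.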

T1 sequence (Q15116 25-288): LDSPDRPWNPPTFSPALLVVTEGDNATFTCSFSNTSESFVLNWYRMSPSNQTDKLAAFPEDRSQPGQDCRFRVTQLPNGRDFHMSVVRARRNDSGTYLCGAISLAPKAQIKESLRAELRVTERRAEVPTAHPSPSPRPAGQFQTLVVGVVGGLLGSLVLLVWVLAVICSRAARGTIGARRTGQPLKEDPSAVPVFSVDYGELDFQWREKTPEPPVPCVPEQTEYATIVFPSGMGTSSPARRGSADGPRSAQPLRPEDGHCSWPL

Which IC50 does the source give for `CC(C)C[C@H]1NC(=O)[C@H](CCCN)NC(=O)[C@H](CCC(=O)O)NC(=O)[C@H](Cc2ccc(-c3ccccc3)cc2)NC(=O)[C@H](C(C)C)NC(=O)[C@H](Cc2ccccn2)NC(=O)[C@H](CC(=O)O)NC(=O)[C@H](Cc2ccc(OCC(=O)O)cc2)NC(=O)[C@H](CN)NC(=O)CSC[C@@H](C(=O)N[C@@H](C)C(N)=O)NC(=O)[C@H]([C@@H](C)O)NC(=O)[C@H](C(C)C)NC(=O)[C@H](CC2CCCCC2)NC(=O)[C@H](CCN)NC1=O` [Compound 2154] ({CH2CO}-[Dap]Y(Carboxymethyl)D[2Pal]V[Bip]E[Orn][dL][Dab][Cha]VTCA-NH2; thioether N-14) here?
Its IC50 is 27.9 nM.

`CC(C)C[C@H]1NC(=O)[C@H](CCCN)NC(=O)[C@H](CCC(=O)O)NC(=O)[C@H](Cc2ccc(-c3ccccc3)cc2)NC(=O)[C@H](C(C)C)NC(=O)[C@H](CCc2ccccc2)NC(=O)[C@H](CC(=O)O)NC(=O)[C@H](Cc2ccc(OCC(=O)O)cc2)NC(=O)[C@H](CN)NC(=O)CSC[C@@H](C(=O)N[C@@H](C)C(N)=O)NC(=O)[C@H]([C@@H](C)O)NC(=O)[C@H](C(C)C)NC(=O)[C@H](CC2CCCCC2)NC(=O)[C@H](CCN)NC1=O` [Compound 2155] was tested. Which IC50 did it give?
Its IC50 is 49.3 nM.

`CC(C)C[C@H]1NC(=O)[C@H](CCCN)NC(=O)[C@H](CCC(=O)O)NC(=O)[C@H](Cc2ccc(-c3ccccc3)cc2)NC(=O)[C@H](C(C)C)NC(=O)[C@H](Cc2cccnc2)NC(=O)[C@H](CC(=O)O)NC(=O)[C@H](Cc2ccc(OCC(=O)O)cc2)NC(=O)[C@H](CN)NC(=O)CSC[C@@H](C(=O)N[C@@H](C)C(N)=O)NC(=O)[C@H]([C@@H](C)O)NC(=O)[C@H](C(C)C)NC(=O)[C@H](CC2CCCCC2)NC(=O)[C@H](CCN)NC1=O` [Compound 2156] ({CH2CO}-[Dap]Y(Carboxymethyl)D[3Pal]V[Bip]E[Orn][dL][Dab][Cha]VTCA-NH2; thioether N-14) was tested. Which IC50 did it give?
Its IC50 is 322 nM.

How did the IC50 turn out when `CC(C)C[C@H]1NC(=O)[C@H](CCCN)NC(=O)[C@H](CCC(=O)O)NC(=O)[C@H](Cc2ccc(-c3ccccc3)cc2)NC(=O)[C@H](C(C)C)NC(=O)[C@H](Cc2c[nH]c3ccccc23)NC(=O)[C@H](CC(=O)O)NC(=O)[C@H](Cc2ccc(C(=O)O)cc2)NC(=O)[C@H](CC(N)=O)NC(=O)CSC[C@@H](C(=O)N[C@@H](C)C(N)=O)NC(=O)[C@H]([C@@H](C)O)NC(=O)[C@H](C(C)C)NC(=O)[C@H](CC2CCCCC2)NC(=O)[C@H](CCN)NC1=O` [Compound 2157] ({CH2CO}-N[Phe(4-COOH)]DWV[Bip]E[Orn][dL][Dab][Cha]VTCA-NH2; thioether N-14) was run?
The IC50 was 8.1 nM.

With `CC(C)C[C@H]1NC(=O)[C@H](CCCN)NC(=O)[C@H](CCC(=O)O)NC(=O)[C@H](Cc2ccc(-c3ccccc3)cc2)NC(=O)[C@H](C(C)C)NC(=O)[C@H](Cc2c[nH]c3ccccc23)NC(=O)[C@H](CC(=O)O)NC(=O)[C@H](Cc2ccc(C(=O)O)cc2)NC(=O)[C@H](Cc2ccccc2)NC(=O)CSC[C@@H](C(=O)N[C@@H](C)C(N)=O)NC(=O)[C@H]([C@@H](C)O)NC(=O)[C@H](C(C)C)NC(=O)[C@H](CC2CCCCC2)NC(=O)[C@H](CCN)NC1=O` [Compound 2158] ({CH2CO}-F[Phe(4-COOH)]DWV[Bip]E[Orn][dL][Dab][Cha]VTCA-NH2; thioether N-14) as the molecule, how does the IC50 read?
The IC50 was 7.7 nM.

How did the IC50 turn out when `CC(C)C[C@H]1NC(=O)[C@H](CCCN)NC(=O)[C@H](CCC(=O)O)NC(=O)[C@H](Cc2ccc(-c3ccccc3)cc2)NC(=O)[C@H](C(C)C)NC(=O)[C@H](Cc2c[nH]c3ccccc23)NC(=O)[C@H](CC(=O)O)NC(=O)[C@H](Cc2ccc(C(=O)O)cc2)NC(=O)[C@H](CN)NC(=O)CSC[C@@H](C(=O)N[C@@H](C)C(N)=O)NC(=O)[C@H]([C@@H](C)O)NC(=O)[C@H](C(C)C)NC(=O)[C@H](CC2CCCCC2)NC(=O)[C@H](CCN)NC1=O` [Compound 2159] was run?
The IC50 was 10.4 nM.

`CC(C)C[C@H]1NC(=O)[C@H](CCCN)NC(=O)[C@H](CCC(=O)O)NC(=O)[C@H](Cc2ccc(-c3ccccc3)cc2)NC(=O)[C@H](C(C)C)NC(=O)[C@H](Cc2c[nH]c3ccccc23)NC(=O)[C@H](CC(=O)O)NC(=O)[C@H](Cc2ccc(-c3cccc(C(=O)O)c3)cc2)NC(=O)[C@H](CC(N)=O)NC(=O)CSC[C@@H](C(=O)N[C@@H](C)C(N)=O)NC(=O)[C@H]([C@@H](C)O)NC(=O)[C@H](C(C)C)NC(=O)[C@H](CC2CCCCC2)NC(=O)[C@H](CCN)NC1=O` [Compound 2160] ({CH2CO}-N[Bip(3'-COOH)]DWV[Bip]E[Orn][dL][Dab][Cha]VTCA-NH2; thioether N-14) was tested. Which IC50 did it give?
Its IC50 is 14.3 nM.

Which IC50 does the source give for `CC(C)C[C@H]1NC(=O)[C@H](CCCN)NC(=O)[C@H](CCC(=O)O)NC(=O)[C@H](Cc2ccc(-c3ccccc3)cc2)NC(=O)[C@H](C(C)C)NC(=O)[C@H](Cc2c[nH]c3ccccc23)NC(=O)[C@H](CC(=O)O)NC(=O)[C@H](Cc2ccc(-c3cccc(C(=O)O)c3)cc2)NC(=O)[C@H](Cc2ccccc2)NC(=O)CSC[C@@H](C(=O)N[C@@H](C)C(N)=O)NC(=O)[C@H]([C@@H](C)O)NC(=O)[C@H](C(C)C)NC(=O)[C@H](CC2CCCCC2)NC(=O)[C@H](CCN)NC1=O` [Compound 2161] ({CH2CO}-F[Bip(3'-COOH)]DWV[Bip]E[Orn][dL][Dab][Cha]VTCA-NH2; thioether N-14) here?
Its IC50 is 27 nM.

How did the IC50 turn out when `CC(C)C[C@H]1NC(=O)[C@H](CCCN)NC(=O)[C@H](CCC(=O)O)NC(=O)[C@H](Cc2ccc(-c3ccccc3)cc2)NC(=O)[C@H](C(C)C)NC(=O)[C@H](Cc2c[nH]c3ccccc23)NC(=O)[C@H](CC(=O)O)NC(=O)[C@H](Cc2ccc(-c3cccc(C(=O)O)c3)cc2)NC(=O)[C@H](CN)NC(=O)CSC[C@@H](C(=O)N[C@@H](C)C(N)=O)NC(=O)[C@H]([C@@H](C)O)NC(=O)[C@H](C(C)C)NC(=O)[C@H](CC2CCCCC2)NC(=O)[C@H](CCN)NC1=O` [Compound 2162] was run?
Its IC50 is 7.7 nM.

Which IC50 does the source give for `CC(C)C[C@H]1NC(=O)[C@H](CCCN)NC(=O)[C@H](CCC(=O)O)NC(=O)[C@H](Cc2ccc(-c3ccccc3)cc2)NC(=O)[C@H](C(C)C)NC(=O)[C@H](Cc2c[nH]c3ccccc23)NC(=O)[C@H](CC(=O)O)NC(=O)[C@H](Cc2ccc(-c3cccc(C(=O)O)c3)cc2)NC(=O)[C@H](Cc2ccc(OCC(=O)O)cc2)NC(=O)CSC[C@@H](C(=O)N[C@@H](C)C(N)=O)NC(=O)[C@H]([C@@H](C)O)NC(=O)[C@H](C(C)C)NC(=O)[C@H](CC2CCCCC2)NC(=O)[C@H](CCN)NC1=O` [Compound 2163] here?
The IC50 was 17.6 nM.

With `CC(C)C[C@H]1NC(=O)[C@H](CCCN)NC(=O)[C@H](CCC(=O)O)NC(=O)[C@H](Cc2ccc(-c3ccccc3)cc2)NC(=O)[C@H](C(C)C)NC(=O)[C@H](Cc2c[nH]c3ccccc23)NC(=O)[C@H](CC(=O)O)NC(=O)[C@H](Cc2ccc(-c3cccc(C(=O)O)c3)cc2)NC(=O)[C@H](Cc2ccncc2)NC(=O)CSC[C@@H](C(=O)N[C@@H](C)C(N)=O)NC(=O)[C@H]([C@@H](C)O)NC(=O)[C@H](C(C)C)NC(=O)[C@H](CC2CCCCC2)NC(=O)[C@H](CCN)NC1=O` [Compound 2164] as the molecule, how does the IC50 read?
The IC50 was 8 nM.

With `CC(C)C[C@H]1NC(=O)[C@H](CCCN)NC(=O)[C@H](CCC(=O)O)NC(=O)[C@H](Cc2ccc(-c3ccccc3)cc2)NC(=O)[C@H](C(C)C)NC(=O)[C@H](Cc2c[nH]c3ccccc23)NC(=O)[C@H](CC(=O)O)NC(=O)[C@H](Cc2ccc(-c3cccc(C(=O)O)c3)cc2)NC(=O)[C@H](CC(N)=O)NC(=O)CSC[C@@H](C(=O)N[C@@H](C)C(N)=O)NC(=O)[C@H]([C@@H](C)O)NC(=O)[C@H](C(C)C)NC(=O)[C@H](CC2CCCCC2)NC(=O)[C@H](CCN)NC1=O` [Compound 2165] ({CH2CO}-N[Bip(3'-COOH)]DWV[Bip]E[Orn][dL][Dab][Cha]VTCA-NH2; thioether N-14) as the molecule, how does the IC50 read?
Its IC50 is 24.1 nM.

`CC(C)C[C@H]1NC(=O)[C@H](CCCN)NC(=O)[C@H](CCC(=O)O)NC(=O)[C@H](Cc2ccc(-c3ccccc3)cc2)NC(=O)[C@H](C(C)C)NC(=O)[C@H](Cc2c[nH]c3ccccc23)NC(=O)[C@H](CC(=O)O)NC(=O)[C@H](Cc2ccc(-c3cccc(C(=O)O)c3)cc2)NC(=O)[C@H](CN)NC(=O)CSC[C@@H](C(=O)N[C@@H](C)C(N)=O)NC(=O)[C@H]([C@@H](C)O)NC(=O)[C@H](C(C)C)NC(=O)[C@H](CC2CCCCC2)NC(=O)[C@H](CCN)NC1=O` [Compound 2166] was tested. Which IC50 did it give?
The IC50 was 22.7 nM.

For `CC(C)C[C@H]1NC(=O)[C@H](CCCN)NC(=O)[C@H](CCC(=O)O)NC(=O)[C@H](Cc2ccc(-c3ccccc3)cc2)NC(=O)[C@H](C(C)C)NC(=O)[C@H](Cc2c[nH]c3ccccc23)NC(=O)[C@H](CC(=O)O)NC(=O)[C@H](Cc2ccc(-c3ccc(C(=O)O)cc3)cc2)NC(=O)[C@H](Cc2ccccc2)NC(=O)CSC[C@@H](C(=O)N[C@@H](C)C(N)=O)NC(=O)[C@H]([C@@H](C)O)NC(=O)[C@H](C(C)C)NC(=O)[C@H](CC2CCCCC2)NC(=O)[C@H](CCN)NC1=O` [Compound 2167] ({CH2CO}-F[Bip(4'-COOH)]DWV[Bip]E[Orn][dL][Dab][Cha]VTCA-NH2; thioether N-14), which IC50 is on record?
Its IC50 is 17.2 nM.

Which IC50 does the source give for `CC(C)C[C@H]1NC(=O)[C@H](CCCN)NC(=O)[C@H](CCC(=O)O)NC(=O)[C@H](Cc2ccc(-c3ccccc3)cc2)NC(=O)[C@H](C(C)C)NC(=O)[C@H](Cc2c[nH]c3ccccc23)NC(=O)[C@H](CC(=O)O)NC(=O)[C@H](Cc2ccc(-c3ccc(C(=O)O)cc3)cc2)NC(=O)[C@H](Cc2ccc(OCC(=O)O)cc2)NC(=O)CSC[C@@H](C(=O)N[C@@H](C)C(N)=O)NC(=O)[C@H]([C@@H](C)O)NC(=O)[C@H](C(C)C)NC(=O)[C@H](CC2CCCCC2)NC(=O)[C@H](CCN)NC1=O` [Compound 2168] here?
Its IC50 is 19.6 nM.

Which IC50 does the source give for `CC(C)C[C@H]1NC(=O)[C@H](CCCN)NC(=O)[C@H](CCC(=O)O)NC(=O)[C@H](Cc2ccc(-c3ccccc3)cc2)NC(=O)[C@H](C(C)C)NC(=O)[C@H](Cc2c[nH]c3ccccc23)NC(=O)[C@H](CC(=O)O)NC(=O)[C@H](Cc2ccc(-c3ccc(C(=O)O)cc3)cc2)NC(=O)[C@H](Cc2ccncc2)NC(=O)CSC[C@@H](C(=O)N[C@@H](C)C(N)=O)NC(=O)[C@H]([C@@H](C)O)NC(=O)[C@H](C(C)C)NC(=O)[C@H](CC2CCCCC2)NC(=O)[C@H](CCN)NC1=O` [Compound 2169] here?
Its IC50 is 40.8 nM.
